Consider one molecule from ChEMBL document CHEMBL4402573, “Discovery and Optimization of α-Mangostin Derivatives as Novel PDE4 Inhibitors for the Treatment of Vascular Dementia” (J Med Chem, 2020).

The term half-life denotes the time in which the quantity being followed falls by half. One may read the IC50 as the midpoint of a concentration-inhibition curve. The AUC(0-inf) is the area under the concentration-time curve extrapolated to infinity. Broadly, the Tmax is the time at which the peak concentration occurs. The term Cmax denotes the peak of the concentration-time curve.

The nature of series [1]: Stability in rat liver microsomes assessed as half life at 0.5 uM. In kind it is ADME, Microsome. On the technique in general: Liver microsomes are a subcellular fraction often used to study metabolism.
Series [2] relates to Mus musculus. The series can be described thus: Anti-VaD activity against UCCAO-induced spatial memory deficient C57BL/6J mouse model assessed as improvement in spatial learning and memory by measuring increase in frequency of platform area crossings at 10 mg/kg, po administered for 21 days by Morris water maze test. Type of series: functional, organism-based.
Series [3] can be described thus: Half life in Sprague-Dawley rat at 2.5 mg/kg, iv measured upto 24 hrs by LC-MS/MS analysis. The settings on record: in vivo. Type of series: ADME, organism-based.
The target in series [4] is cGMP-specific 3',5'-cyclic phosphodiesterase (Homo sapiens, UniProt O76074). Briefly: Inhibition of human PDE5A1 (535 to 860 residues) expressed in Escherichia coli BL21 codon-plus cells using [3H]cGMP as substrate incubated for 15 mins by liquid scintillation counting method.
In series [5] the target is High affinity 3',5'-cyclic-AMP phosphodiesterase 7A (Homo sapiens, UniProt Q13946). Briefly: Inhibition of human PDE7A1 (130 to 482 residues) expressed in Escherichia coli BL21 codon-plus cells using [3H]cAMP as substrate incubated for 15 mins by liquid scintillation counting method.
Chain of High affinity 3',5'-cyclic-AMP phosphodiesterase 7A (Q13946 whole entry, the tested form may be a part): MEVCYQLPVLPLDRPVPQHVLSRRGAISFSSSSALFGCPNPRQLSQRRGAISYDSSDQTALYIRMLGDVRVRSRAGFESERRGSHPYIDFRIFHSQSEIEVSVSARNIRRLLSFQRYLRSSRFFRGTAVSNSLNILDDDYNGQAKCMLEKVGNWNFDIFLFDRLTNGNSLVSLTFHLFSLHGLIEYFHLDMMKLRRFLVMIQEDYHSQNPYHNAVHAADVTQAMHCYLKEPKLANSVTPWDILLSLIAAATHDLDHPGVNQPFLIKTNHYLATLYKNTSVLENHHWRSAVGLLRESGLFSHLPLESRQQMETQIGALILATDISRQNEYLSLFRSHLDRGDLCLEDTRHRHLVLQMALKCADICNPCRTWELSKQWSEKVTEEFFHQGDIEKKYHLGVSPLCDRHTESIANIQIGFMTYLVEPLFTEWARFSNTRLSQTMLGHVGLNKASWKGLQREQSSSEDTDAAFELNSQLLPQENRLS
The target in series [6] is cAMP and cAMP-inhibited cGMP 3',5'-cyclic phosphodiesterase 10A (Homo sapiens, UniProt Q9Y233). The series can be described thus: Inhibition of human PDE10A2 (449 to 770 residues) expressed in Escherichia coli BL21 codon-plus cells using [3H]cAMP as substrate incubated for 15 mins followed by substrate addition by liquid scintillation counting method.
Chain of cAMP and cAMP-inhibited cGMP 3',5'-cyclic phosphodiesterase 10A (Q9Y233 whole entry, the tested form may be a part): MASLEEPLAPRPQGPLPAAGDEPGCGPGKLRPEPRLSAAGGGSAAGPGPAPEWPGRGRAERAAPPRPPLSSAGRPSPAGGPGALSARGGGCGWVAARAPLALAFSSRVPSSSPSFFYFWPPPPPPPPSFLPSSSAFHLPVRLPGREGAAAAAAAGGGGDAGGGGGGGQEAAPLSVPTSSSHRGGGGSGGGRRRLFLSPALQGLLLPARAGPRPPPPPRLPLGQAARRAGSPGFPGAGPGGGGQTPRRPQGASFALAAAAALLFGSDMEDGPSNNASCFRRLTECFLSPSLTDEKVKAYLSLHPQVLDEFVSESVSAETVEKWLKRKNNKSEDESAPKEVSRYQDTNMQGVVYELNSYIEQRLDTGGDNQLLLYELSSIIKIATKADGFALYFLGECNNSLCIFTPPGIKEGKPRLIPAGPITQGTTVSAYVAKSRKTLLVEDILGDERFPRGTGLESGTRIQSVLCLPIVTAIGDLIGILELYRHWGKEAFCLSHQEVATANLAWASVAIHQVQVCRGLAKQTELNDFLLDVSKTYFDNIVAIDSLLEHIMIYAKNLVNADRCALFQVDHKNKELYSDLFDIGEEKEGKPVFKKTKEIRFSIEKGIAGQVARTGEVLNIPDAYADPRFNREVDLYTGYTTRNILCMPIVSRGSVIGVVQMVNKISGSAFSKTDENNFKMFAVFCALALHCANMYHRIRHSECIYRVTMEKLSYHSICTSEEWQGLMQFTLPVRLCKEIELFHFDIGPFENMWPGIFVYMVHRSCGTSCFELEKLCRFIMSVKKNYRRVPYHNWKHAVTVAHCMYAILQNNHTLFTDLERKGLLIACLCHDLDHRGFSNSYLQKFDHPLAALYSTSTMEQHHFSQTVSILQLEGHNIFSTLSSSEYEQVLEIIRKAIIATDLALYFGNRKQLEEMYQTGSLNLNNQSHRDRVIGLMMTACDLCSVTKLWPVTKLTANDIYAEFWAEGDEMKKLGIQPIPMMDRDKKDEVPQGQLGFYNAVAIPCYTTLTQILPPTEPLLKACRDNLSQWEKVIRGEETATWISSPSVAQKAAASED
The species entered for series [7] is Homo sapiens. The series can be described thus: Selectivity index, ratio of IC50 for human PDE1B (10 to 487 residues) expressed in Escherichia coli BL21 codon-plus cells to IC50 for human PDE4D2 (86 to 413 residues) expressed in Escherichia coli BL21 codon-plus cells.
Series [8] is filed under the species Homo sapiens. Briefly: Selectivity index, ratio of IC50 for human PDE3A (679 to 1087 residues) expressed in Escherichia coli BL21 codon-plus cells to IC50 for human PDE4D2 (86 to 413 residues) expressed in Escherichia coli BL21 codon-plus cells.
For series [9], the species on record is Homo sapiens. The series can be described thus: Selectivity index, ratio of IC50 for human PDE7A1 (130 to 482 residues) expressed in Escherichia coli BL21 codon-plus cells to IC50 for human PDE4D2 (86 to 413 residues) expressed in Escherichia coli BL21 codon-plus cells.
For series [10], the species on record is Homo sapiens. Briefly: Selectivity index, ratio of IC50 for human PDE9A2 (181 to 506 residues) expressed in Escherichia coli BL21 codon-plus cells to IC50 for human PDE4D2 (86 to 413 residues) expressed in Escherichia coli BL21 codon-plus cells.
A short description of series [11]: AUC(0 to infinity) in Sprague-Dawley rat at 2.5 mg/kg, iv measured upto 24 hrs by LC-MS/MS analysis. Type of series: ADME, organism-based. Details: dose 2.5 mg/kg, route intravenous, time infinity. The settings on record: in vivo.
A short description of series [12]: Half life in Sprague-Dawley rat at 5 mg/kg, po measured upto 24 hrs by LC-MS/MS analysis. In kind it is ADME, organism-based. The settings on record: in vivo.
The nature of series [13]: Tmax in Sprague-Dawley rat at 5 mg/kg, po measured upto 24 hrs by LC-MS/MS analysis. In kind it is ADME, organism-based. To be noted: in vivo.
Series [14] in a line: Cmax in Sprague-Dawley rat at 5 mg/kg, po measured upto 24 hrs by LC-MS/MS analysis. In kind it is ADME, organism-based. Details: dose 5 mg/kg, route oral. The settings on record: in vivo.
The next series has as its target Cytochrome P450 2D6 (Homo sapiens, UniProt P10635). Briefly: Inhibition of human CYP2D6. In kind it is ADME.
In series [15] the test system is Mus musculus. Briefly: Anti-VaD activity against UCCAO-induced spatial memory deficient C57BL/6J mouse model assessed as improvement in spatial learning and memory by measuring increase in residence time on the platform at 10 mg/kg, po administered for 21 days by Morris water maze test. Type of series: functional, organism-based.
In series [16] the test system is Mus musculus. The series can be described thus: Anti-VaD activity against UCCAO-induced spatial memory deficient C57BL/6J mouse model assessed as improvement in spatial learning and memory by measuring increase in latency time at 10 mg/kg, po administered for 21 days by passive avoidance test. Type of series: functional, organism-based.

The source made the active and inactive calls. The rule behind the calls is not given here.

Chain of Cytochrome P450 2D6 (P10635 whole entry): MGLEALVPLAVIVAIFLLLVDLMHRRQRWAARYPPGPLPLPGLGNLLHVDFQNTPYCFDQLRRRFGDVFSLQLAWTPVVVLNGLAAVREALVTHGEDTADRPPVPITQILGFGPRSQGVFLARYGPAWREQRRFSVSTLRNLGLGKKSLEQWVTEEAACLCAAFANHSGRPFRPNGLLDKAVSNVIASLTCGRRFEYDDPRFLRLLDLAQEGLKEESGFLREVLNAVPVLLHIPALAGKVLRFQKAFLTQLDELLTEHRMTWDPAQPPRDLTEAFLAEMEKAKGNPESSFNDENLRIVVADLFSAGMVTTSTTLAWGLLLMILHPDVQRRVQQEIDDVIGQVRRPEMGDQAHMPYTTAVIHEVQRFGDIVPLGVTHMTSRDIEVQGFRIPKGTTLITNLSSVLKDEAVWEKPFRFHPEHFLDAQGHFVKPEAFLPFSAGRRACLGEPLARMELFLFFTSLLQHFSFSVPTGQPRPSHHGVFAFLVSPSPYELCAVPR

With `COc1c(OCCCCCCC(=O)O)cc2oc3cc4c(c(O)c3c(=O)c2c1CC=C(C)C)C=CC(C)(C)O4`, the half-life at 0.5 µM in [1] is 2.8 h. Further, the outcome in the series on Mus musculus [2], with Mus musculus [15] and with Mus musculus [16] was Active. In addition, the half-life was 4.28 h in [3] and 3.48 h in [12]. The IC50 in [4] is 3.39 µM; in series [5], 0.62 µM; in series [6], over 10 µM; on Cytochrome P450 2D6, over 10 µM. In addition, the Ratio IC50 was over 580 in the series listed under Homo sapiens [7], over 580 in the series listed under Homo sapiens [8], 36 in the series listed under Homo sapiens [9] and over 580 in the series listed under Homo sapiens [10]. In series [11], the AUC(0-inf) is 6710 ng·h/mL. Also, the Tmax in series [13] came out at 4.67 h. Besides, the concentration in [14] peaked (Cmax) at 661 ng/mL.
